Measured values published in patent publication US20120171305A1, “Response Prediction in Cancer Treatment Involving p53 Adapted Cancer Therapy” (priority 2011, published 2012).

Tested on: stage III colon cancer
Assay: Studie 90: fluorouracil-based adjuvant chemotherapy, survival by TP53 genotype
Assay type: in vivo, human
Details: for five-years survival rate: low risk patients (1-3 positive lymph nodes)
Source text: Tumor specimens were collected from 411 patients enrolled in a randomised trial of fluorouracil-based adjuvant chemotherapy for stage III colon cancer patients.
Fluorouracil acts according to pathway 1 and is supposed to need a normal p53 for induction of apoptosis. The p53 gene status could be assessed in 389 tumors through standardized, gene specific sequencing of the TP53 gene.

With O=c1[nH]cc(F)c(=O)[nH]1 [fluorouracil] the five-year survival (entire stage IIIA cohort) was 84.5%, the “interaction between survival and TP53 genotype” value (high-risk stage III patients) was “no interaction” and the five-years survival rate (TP53 mutated) was 64.7%. For the same compound, the five-years survival rate (normal TP53 genotype) was 81%, the “interaction with TP53 genotype” value (mutant TP53 genotype, low-risk stage III patients) was “negatively interacts” and the “interaction with TP53 genotype” value (normal p53 genotype, low risk stage III patients (N1 or IIIA and IIIB stage)) was “positively interacts”. It also gave a five-year survival (stage IIIA, TP53 mutant) of 78%, a five-year survival (stage IIIA, TP53 normal) of 91% and a five-year survival (stage IIIB cohort) of 63%. The five-year survival (stage IIIB, TP53 mutant) was 60%, the five-year survival (stage IIIB, TP53 normal) was 79% and the “benefit in relation to the TP53 genotype” value (stage IIIC patients) was “no differential benefit”.
